ChEMBL document CHEMBL5634174, “Biological evaluation of sulfonate and sulfate analogues of lithocholic acid: A bioisosterism-guided approach towards the discovery of potential sialyltransferase inhibitors for antimetastatic study” (Bioorg Med Chem Lett, 2024)
The source made the active and inactive calls. The rule behind the calls is not given here.

Key:
[1] = molecular target: T1, Beta-galactoside alpha-2,6-sialyltransferase 1 (Homo sapiens) (UniProt P15907); assay: Inhibition of recombinant human N-terminal His tagged ST6GAL1 (44 to 406 residues) at 50 uM by UPLC-based assay relative to control
T1 sequence (whole entry): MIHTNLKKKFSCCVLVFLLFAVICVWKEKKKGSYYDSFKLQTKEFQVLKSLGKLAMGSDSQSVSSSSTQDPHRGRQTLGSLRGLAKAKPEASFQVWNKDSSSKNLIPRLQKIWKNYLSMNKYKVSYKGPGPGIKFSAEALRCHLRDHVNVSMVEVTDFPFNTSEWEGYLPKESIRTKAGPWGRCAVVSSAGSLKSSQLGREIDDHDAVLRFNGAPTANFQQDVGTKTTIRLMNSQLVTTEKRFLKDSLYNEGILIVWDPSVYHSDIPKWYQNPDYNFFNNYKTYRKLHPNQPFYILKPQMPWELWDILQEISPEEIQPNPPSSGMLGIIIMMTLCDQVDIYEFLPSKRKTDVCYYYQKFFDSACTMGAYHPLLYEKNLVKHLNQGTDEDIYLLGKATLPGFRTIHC

[2] = molecular target: T2, Beta-galactoside alpha-2,6-sialyltransferase 1 (Homo sapiens, UniProt P15907); assay: Inhibition of recombinant human N-terminal His tagged ST6GAL1 (44 to 406 residues) by UPLC-based assay
T2 sequence (P15907 whole entry): T1 sequence (whole entry)

[3] = molecular target: T3, Sialyltransferase ST3Gal-I (Rattus norvegicus) (UniProt Q6H8N0); assay: Inhibition of rat ST3GAL1 at 500 uM by UPLC-based assay relative to control
T3 sequence (whole entry): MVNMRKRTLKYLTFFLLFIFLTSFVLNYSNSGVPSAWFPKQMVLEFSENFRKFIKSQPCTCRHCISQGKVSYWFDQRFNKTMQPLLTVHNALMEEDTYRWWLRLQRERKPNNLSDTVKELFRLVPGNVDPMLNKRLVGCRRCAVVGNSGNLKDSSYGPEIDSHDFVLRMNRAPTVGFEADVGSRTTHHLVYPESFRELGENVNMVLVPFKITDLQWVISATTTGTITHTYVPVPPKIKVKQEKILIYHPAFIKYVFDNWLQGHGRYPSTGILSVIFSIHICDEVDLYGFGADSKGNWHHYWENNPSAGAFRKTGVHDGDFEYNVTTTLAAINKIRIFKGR

[4] = molecular target: T3, Sialyltransferase ST3Gal-I (Rattus norvegicus); assay: Inhibition of rat ST3GAL1 at 1000 uM by UPLC-based assay relative to control
[5] = molecular target: T4, Sialyltransferase ST3Gal-I (Rattus norvegicus, UniProt Q6H8N0); assay: Inhibition of rat ST3GAL1 by UPLC-based assay
T4 sequence (Q6H8N0 whole entry): T3 sequence (whole entry)

[6] = test system: MDA-MB-231; assay: Antiproliferative activity against human MDA-MB-231 cells assessed as cell viability at 80 uM by MTT assay; format: functional, cell-based
[7] = molecular target: T2, Beta-galactoside alpha-2,6-sialyltransferase 1; assay: Inhibition of human ST6GAL1 in the Galbeta1,4GlcNAcbeta-4,5-dimethoxy-2-nitrobenzyl
[8] = Selectivity index, ratio of IC50 for inhibition of rat ST3GAL1 to IC50 for inhibition of human ST6GAL1
[9] = test system: MDA-MB-231; assay: Antimigratory activity against human MDA-MB-231 cells at 60 uM incubated for 16 hrs by transwell migration assay; format: functional, cell-based
[10] = test system: MDA-MB-231; assay: Inhibition of cell invasion in human MDA-MB-231 cells assessed as reduction in cell adhesion to collagen IV at 60 uM incubated for 48 hrs; format: functional, cell-based
[11] = test system: MDA-MB-231; assay: Inhibition of cell invasion in human MDA-MB-231 cells assessed as reduction in cell adhesion to fibronectin at 60 uM incubated for 24 hrs; format: functional, cell-based
[12] = test system: MDA-MB-231; assay: Inhibition of cell invasion in human MDA-MB-231 cells assessed as reduction in cell adhesion at 60 uM after 48 hrs; format: functional, cell-based
[13] = molecular target: T5, CMP-N-acetylneuraminate-beta-1,4-galactoside alpha-2,3-sialyltransferase (Homo sapiens, UniProt Q11203); assay: Inhibition of ST3GAL3 (unknown origin)
T5 sequence (Q11203 whole entry): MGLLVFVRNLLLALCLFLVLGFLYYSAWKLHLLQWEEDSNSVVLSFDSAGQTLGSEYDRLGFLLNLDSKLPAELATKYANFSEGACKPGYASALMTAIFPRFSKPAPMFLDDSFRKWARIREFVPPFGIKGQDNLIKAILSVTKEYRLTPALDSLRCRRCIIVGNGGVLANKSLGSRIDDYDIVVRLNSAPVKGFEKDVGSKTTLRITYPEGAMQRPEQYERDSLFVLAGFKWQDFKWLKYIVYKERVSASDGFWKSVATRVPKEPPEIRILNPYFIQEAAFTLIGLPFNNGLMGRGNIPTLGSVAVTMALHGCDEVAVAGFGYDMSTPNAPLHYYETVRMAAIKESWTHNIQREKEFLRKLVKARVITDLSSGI

[14] = molecular target: T6, CMP-N-acetylneuraminate-beta-galactosamide-alpha-2,3-sialyltransferase 1 (Homo sapiens, UniProt Q11201); assay: Inhibition of ST3GAL1 (unknown origin)
T6 sequence (Q11201 whole entry): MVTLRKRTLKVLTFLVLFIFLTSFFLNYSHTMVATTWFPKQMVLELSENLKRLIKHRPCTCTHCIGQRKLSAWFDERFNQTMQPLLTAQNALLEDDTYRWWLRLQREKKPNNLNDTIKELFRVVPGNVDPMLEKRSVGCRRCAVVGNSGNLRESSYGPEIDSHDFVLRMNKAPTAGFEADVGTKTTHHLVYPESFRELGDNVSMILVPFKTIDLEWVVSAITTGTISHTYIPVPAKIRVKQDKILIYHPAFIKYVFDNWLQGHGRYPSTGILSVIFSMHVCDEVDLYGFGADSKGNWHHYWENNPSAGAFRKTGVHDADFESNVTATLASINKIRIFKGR

[15] = molecular target: T2, Beta-galactoside alpha-2,6-sialyltransferase 1; assay: Inhibition of ST6GAL1 (unknown origin)
[16] = molecular target: T7, CMP-N-acetylneuraminate-beta-galactosamide-alpha-2,3-sialyltransferase 1 (Mus musculus, UniProt P54751); assay: Inhibition of mouse brain ST3Gal1 expressed in COS-7 cells using CMP-[14C]NeuAc as substrate assessed as inhibition of constant incubated for 30 mins in presence of Galbeta1,3GalNAcOBzl by Lineweaver-Burk plot analysis
T7 sequence (P54751 whole entry): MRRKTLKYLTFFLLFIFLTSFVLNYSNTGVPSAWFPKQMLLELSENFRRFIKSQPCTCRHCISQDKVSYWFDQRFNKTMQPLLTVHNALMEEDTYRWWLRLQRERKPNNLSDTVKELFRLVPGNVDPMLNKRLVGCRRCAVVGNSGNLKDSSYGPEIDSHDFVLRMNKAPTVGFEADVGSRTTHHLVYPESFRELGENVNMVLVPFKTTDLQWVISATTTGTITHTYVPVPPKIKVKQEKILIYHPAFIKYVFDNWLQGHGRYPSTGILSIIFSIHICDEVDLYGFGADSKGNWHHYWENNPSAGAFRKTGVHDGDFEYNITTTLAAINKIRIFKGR

## C[C@H](CCCS(=O)(=O)O)[C@H]1CC[C@H]2[C@@H]3CC[C@@H]4C[C@H](OS(=O)(=O)O)CC[C@]4(C)[C@H]3CC[C@]12C
[1]
  inhibition: 0%
[2]
  IC50: > 50 µM
[3]
  inhibition: 35%
[4]
  inhibition: 100%
[5]
  IC50: 500 µM
[6]
  Activity: Active

## C[C@H](CCC(=O)O)[C@H]1CC[C@H]2[C@@H]3CC[C@@H]4C[C@H](O)CC[C@]4(C)[C@H]3CC[C@]12C [LITHOCHOLIC ACID]
[1]
  inhibition: 0%
[2]
  IC50: > 50 µM
[3]
  inhibition: 53%
[4]
  inhibition: 64%
[5]
  IC50: 500 µM

## C[C@H](CCC(=O)O)[C@H]1CC[C@H]2[C@@H]3CC[C@@H]4C[C@H](OC(=O)[C@@H](N)CC(=O)O)CC[C@]4(C)[C@H]3CC[C@]12C
[7]
  IC50: 17 µM

## C[C@H](CCC(=O)O)[C@H]1CC[C@H]2[C@@H]3[C@@H](O)C[C@@H]4C[C@H](O)CC[C@]4(C)[C@H]3CC[C@]12C [URSODIOL]
[1]
  inhibition: 0%
[2]
  IC50: > 50 µM
[3]
  inhibition: 3%
[5]
  IC50: > 500 µM

## C[C@H](CCCOS(=O)(=O)O)[C@H]1CC[C@H]2[C@@H]3CC[C@@H]4C[C@H](OS(=O)(=O)O)CC[C@]4(C)[C@H]3CC[C@]12C
[1]
  inhibition: 100%
[2]
  IC50: 21.5 µM
[3]
  inhibition: 90%
[4]
  inhibition: 100%
[5]
  IC50: 402 µM
[8]
  Ratio IC50: 19
[9]
  Activity: Active
[10]
  inhibition: Active
[11]
  inhibition: Active
[12]
  inhibition: inactive

## C[C@H](CCC(=O)O)[C@H]1CC[C@H]2[C@@H]3CC[C@@H]4C[C@H](OC(=O)[C@H](CC(=O)O)Nc5ccc([N+](=O)[O-])c6nonc56)CC[C@]4(C)[C@H]3CC[C@]12C
[13]
  IC50: 880 nM
[14]
  IC50: 13 µM
[15]
  IC50: 1500 nM

## C[C@H](CCC(=O)NCCS(=O)(=O)O)[C@H]1CC[C@H]2[C@@H]3CC[C@@H]4C[C@H](O)CC[C@]4(C)[C@H]3C[C@H](O)[C@]12C [TAURODEOXYCHOLIC ACID]
[1]
  inhibition: 0%
[2]
  IC50: > 50 µM
[3]
  inhibition: 3%
[5]
  IC50: > 500 µM

## C[C@H](CCC(=O)O)[C@H]1CC[C@H]2[C@@H]3CC[C@@H]4C[C@H](OS(=O)(=O)O)CC[C@]4(C)[C@H]3CC[C@]12C
[1]
  inhibition: 0%
[2]
  IC50: > 50 µM
[3]
  inhibition: 23%
[4]
  inhibition: 82%
[5]
  IC50: 500 µM

## C[C@H](CCC(=O)O)[C@H]1CC[C@H]2[C@@H]3C[C@H](O)[C@@H]4C[C@H](O)CC[C@]4(C)[C@H]3CC[C@]12C [HYODEOXYCHOLIC_ACID]
[1]
  inhibition: 0%
[2]
  IC50: > 50 µM
[3]
  inhibition: 7%
[5]
  IC50: > 500 µM

## C[C@H](CCC(=O)O)[C@H]1CC[C@H]2[C@@H]3[C@H](O)C[C@@H]4C[C@H](O)CC[C@]4(C)[C@H]3CC[C@]12C [CHENODIOL]
[1]
  inhibition: 0%
[2]
  IC50: > 50 µM
[3]
  inhibition: 6%
[5]
  IC50: > 500 µM

## C[C@H](CCCS(=O)(=O)O)[C@H]1CC[C@H]2[C@@H]3CC[C@@H]4C[C@H](O)CC[C@]4(C)[C@H]3CC[C@]12C
[1]
  inhibition: 100%
[2]
  IC50: 18.5 µM
[3]
  inhibition: 5%
[4]
  inhibition: 40%
[5]
  IC50: > 1000 µM
[8]
  Ratio IC50: > 54
[9]
  Activity: Active

## C[C@@H]1O[C@@H](O[C@H]2[C@H](O[C@H]3[C@H](O[C@H]4CC[C@@]5(C)[C@@H](CC[C@]6(C)[C@@H]5CC=C5[C@@H]7CC(C)(C)C[C@@H](O)[C@]7(C)CC[C@]56C)[C@@]4(C)CO)O[C@H](C(=O)O)[C@@H](O)[C@@H]3O)O[C@H](CO)[C@H](O)[C@@H]2O)[C@H](O)[C@H](O)[C@H]1O [SOYASAPONIN I]
[16]
  Ki: 2300 nM
